Measured values published in US12391679B2, “Benzamide-substituted bicyclic imidazo- and pyrazolo-fused -pyridine, -pyrimide, and -pyridazine compounds for treatment of inflammatory diseases” (ONCO3R Therapeutics BV, priority 2019, dated 2025).

Assays:
Assay type in all cases: biochemical
SIK3 = molecular target: T1, SIK3 (Homo sapiens, UniProt Q9Y2K2); assay: ADP-Glo kinase assay, SIK3
T1 construct: purchased SignalChem S12-11G-100
Description: (§1) The ADP-Glo™ kinase assay is a luminescent technology assay which measures the ADP formed from a kinase reaction. […] In a second step the kinase reactions are terminated and all the remaining ATP is depleted. In a final step the ADP is converted into ATP and this newly synthesized ATP is measured by using a luciferase/luciferin reaction. The generated light is measured using an Envision plate reader, wherein the luminescent signal obtained positively correlates with the kinase activity.
(§2) 1% DMSO and 10 μM staurosporine final concentrations are used as negative and positive controls.
(§3) 2 μL enzyme-substrate mixture is added to the assay plates.
(§4) The reaction is started by adding 2 μL diluted ATP on the assay plates. Plates are centrifuged for a few seconds at 1000 rpm and gently shaken for […] followed by an incubation at RT for 120 min.
(§5) The reactions are stopped and the unconsumed ATP is depleted by adding 5 μL ADP-Glo Reagent (Promega, Cat #V9120) to the reaction. The plates are centrifuged for a few seconds at 1000 rpm and incubated at RT for 40 min (ATP depletion).
(§6) The ADP is converted to ATP and luciferase and luciferin is introduced to detect ATP by adding 10 μL Kinase Detection Reagent (Promega, Cat #V913B+V914r) to the reaction. The plates are centrifuged for a few seconds at 1000 rpm and incubated at RT for 30 min (ADP detection).
(§7) Luminescence is measured on an Envision plate reader (PerkinElmer Inc.).

SIK2 = molecular target: T2, SIK2 (Homo sapiens, UniProt Q9H0K1); assay: ADP-Glo kinase assay, SIK2
T2 construct: purchased ThermoFisher Scientific PV4792
Description: as §1, §2, §3, §4, §5, §6, §7

SIK1 = molecular target: T3, SIK1 (Homo sapiens, UniProt P57059); assay: ADP-Glo kinase assay, SIK1
T3 construct: purchased Carna Biosciences 02-131
Description: as §1, §2, §3, §4, §5, §6, §7

T2 sequence (Q9H0K1 whole entry): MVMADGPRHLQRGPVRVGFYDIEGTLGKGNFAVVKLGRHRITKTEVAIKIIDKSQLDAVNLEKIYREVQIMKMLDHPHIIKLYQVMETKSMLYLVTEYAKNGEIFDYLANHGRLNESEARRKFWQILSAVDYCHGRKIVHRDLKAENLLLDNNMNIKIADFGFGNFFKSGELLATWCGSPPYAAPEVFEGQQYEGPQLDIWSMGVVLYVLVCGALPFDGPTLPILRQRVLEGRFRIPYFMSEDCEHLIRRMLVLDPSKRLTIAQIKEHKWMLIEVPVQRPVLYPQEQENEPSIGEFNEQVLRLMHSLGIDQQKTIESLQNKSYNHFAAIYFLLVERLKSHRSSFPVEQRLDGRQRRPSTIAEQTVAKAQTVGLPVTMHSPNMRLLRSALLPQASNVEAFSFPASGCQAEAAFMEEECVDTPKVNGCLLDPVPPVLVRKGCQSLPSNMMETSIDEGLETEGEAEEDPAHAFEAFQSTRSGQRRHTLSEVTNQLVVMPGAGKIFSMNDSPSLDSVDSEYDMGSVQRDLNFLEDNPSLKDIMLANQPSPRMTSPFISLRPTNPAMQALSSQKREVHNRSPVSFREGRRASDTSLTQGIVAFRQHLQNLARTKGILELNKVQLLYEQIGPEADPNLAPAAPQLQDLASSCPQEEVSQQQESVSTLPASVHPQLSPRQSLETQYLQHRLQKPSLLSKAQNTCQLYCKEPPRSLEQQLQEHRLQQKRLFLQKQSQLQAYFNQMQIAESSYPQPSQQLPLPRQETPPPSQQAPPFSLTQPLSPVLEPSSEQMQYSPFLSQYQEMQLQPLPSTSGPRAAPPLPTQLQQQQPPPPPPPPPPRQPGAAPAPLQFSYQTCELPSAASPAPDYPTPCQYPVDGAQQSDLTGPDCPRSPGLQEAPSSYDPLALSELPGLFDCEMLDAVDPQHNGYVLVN
T3 sequence (P57059 whole entry): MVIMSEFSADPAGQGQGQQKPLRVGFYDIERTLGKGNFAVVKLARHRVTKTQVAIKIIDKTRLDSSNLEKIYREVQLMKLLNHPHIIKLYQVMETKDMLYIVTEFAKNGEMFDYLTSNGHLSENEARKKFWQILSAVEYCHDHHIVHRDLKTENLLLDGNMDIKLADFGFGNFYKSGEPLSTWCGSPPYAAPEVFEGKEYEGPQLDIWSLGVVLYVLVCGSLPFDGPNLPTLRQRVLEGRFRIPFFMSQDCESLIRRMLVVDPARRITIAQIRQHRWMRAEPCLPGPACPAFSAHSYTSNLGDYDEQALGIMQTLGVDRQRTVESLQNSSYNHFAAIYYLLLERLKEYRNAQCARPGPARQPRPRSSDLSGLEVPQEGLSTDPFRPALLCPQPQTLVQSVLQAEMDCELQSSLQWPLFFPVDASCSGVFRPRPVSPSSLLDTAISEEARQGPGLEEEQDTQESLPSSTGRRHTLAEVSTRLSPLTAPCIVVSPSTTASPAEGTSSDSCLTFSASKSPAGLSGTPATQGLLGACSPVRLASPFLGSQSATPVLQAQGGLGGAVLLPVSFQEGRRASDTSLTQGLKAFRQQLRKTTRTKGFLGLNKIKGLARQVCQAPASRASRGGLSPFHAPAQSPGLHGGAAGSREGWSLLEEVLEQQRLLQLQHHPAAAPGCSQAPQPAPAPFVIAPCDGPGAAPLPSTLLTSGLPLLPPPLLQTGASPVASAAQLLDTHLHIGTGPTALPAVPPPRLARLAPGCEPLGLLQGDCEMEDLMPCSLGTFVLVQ
T1 sequence (Q9Y2K2 59-365 limits assumed): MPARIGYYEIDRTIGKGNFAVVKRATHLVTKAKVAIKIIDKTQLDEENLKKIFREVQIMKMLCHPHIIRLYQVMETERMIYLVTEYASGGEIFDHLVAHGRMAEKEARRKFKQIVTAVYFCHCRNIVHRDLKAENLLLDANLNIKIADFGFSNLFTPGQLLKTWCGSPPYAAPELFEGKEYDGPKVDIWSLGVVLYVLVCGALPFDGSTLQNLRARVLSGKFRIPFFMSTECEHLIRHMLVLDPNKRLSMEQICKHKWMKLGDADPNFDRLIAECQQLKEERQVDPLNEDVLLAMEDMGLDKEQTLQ

Structure (SMILES)	IC50 (SIK3) [nM]	IC50 (SIK2) [nM]	IC50 (SIK1) [nM]
COc1cc(-c2cnc3cc(C(C)(C)C#N)ccn23)cc(OC(F)F)c1C(=O)N1CC2(CN(C)C2)C1 [Cpd 99, 2-[3-[3-(difluoromethoxy)-5-methoxy-4-(6-methyl-2,6-diazaspiro[3.3]heptane-2-carbonyl)phenyl]imidazo[1,2-a]pyridin-7-yl]-2-methyl-propanenitrile]	100 to 500	> 500	> 500
COc1cc(-c2cnc3cc(C(C)(C)C#N)ccn23)cc(OC(F)F)c1C(=O)NC(C1CC1)C(F)(F)F (stereo not drawn) [Cpd 100, 4-[7-(1-cyano-1-methyl-ethyl)imidazo[1,2-a]pyridin-3-yl]-N-(1-cyclopropyl-2,2,2-trifluoro-ethyl)-2-(difluoromethoxy)-6-methoxy-benzamide]	> 500	> 500	> 500
COc1cc(-c2cnc3cc(C(C)(C)C#N)ccn23)cc(OC(F)F)c1C(=O)NC(C)C1CC1 (stereo not drawn) [Cpd 101, 4-[7-(1-cyano-1-methyl-ethyl)imidazo[1,2-a]pyridin-3-yl]-N-(1-cyclopropylethyl)-2-(difluoromethoxy)-6-methoxy-benzamide]	100 to 500	> 500	> 500
COc1cc(-c2cnc3cc(C(C)(C)C#N)ccn23)cc(OC(F)F)c1C(=O)N1CCC1C (stereo not drawn) [Cpd 104, 2-[3-[3-(difluoromethoxy)-5-methoxy-4-(2-methylazetidine-1-carbonyl)phenyl]imidazo[1,2-a]pyridin-7-yl]-2-methyl-propanenitrile]	> 500	> 500	> 500
COc1cc(-c2cnc3cc(C(C)(C)C#N)ccn23)cc(OC(F)F)c1C(=O)N1CCC1CO (stereo not drawn) [Cpd 105, 2-[3-[3-(difluoromethoxy)-4-[2-(hydroxymethyl)azetidine-1-carbonyl]-5-methoxy-phenyl]imidazo[1,2-a]pyridin-7-yl]-2-methyl-propanenitrile]	100 to 500	> 500	> 500
COc1cc(-c2cnc3cc(C4CCOCC4)ncn23)cc(OC(F)F)c1C(=O)NC1CC1 [Cpd 109, N-cyclopropyl-2-(difluoromethoxy)-6-methoxy-4-(7-tetrahydropyran-4-ylimidazo[1,2-c]pyrimidin-3-yl)benzamide]	> 500	> 500	> 500
COc1cc(-c2cnc3cc(C(C)(C)OC)ncn23)cc(OC(F)F)c1C(=O)NC1CC1 [Cpd 118, N-cyclopropyl-2-(difluoromethoxy)-6-methoxy-4-[7-(1-methoxy-1-methyl-ethyl)imidazo[1,2-c]pyrimidin-3-yl]benzamide]	10 to 100	> 500	> 500
COc1cc(-c2cnc3cc(C(C)(C)O)ncn23)cc(OC(F)F)c1C(=O)NC1CC1 [Cpd 119, N-cyclopropyl-2-(difluoromethoxy)-4-[7-(1-hydroxy-1-methyl-ethyl)imidazo[1,2-c]pyrimidin-3-yl]-6-methoxy-benzamide]	100 to 500	> 500	> 500
COc1cc(-c2cnc3cc(C4(C#N)CN(C(C)=O)C4)ccn23)cc(OC(F)F)c1C(=O)NC1CC1 [Cpd 122, 4-[7-(1-acetyl-3-cyano-azetidin-3-yl)imidazo[1,2-a]pyridin-3-yl]-N-cyclopropyl-2-(difluoromethoxy)-6-methoxy-benzamide]	10 to 100	> 500	> 500
CCC(O)(CC)c1ccn2c(-c3cc(OC)c(C(=O)NC4CC4)c(OC(F)F)c3)cnc2c1 [Cpd 124, N-cyclopropyl-2-(difluoromethoxy)-4-[7-(1-ethyl-1-hydroxy-propyl)imidazo[1,2-a]pyridin-3-yl]-6-methoxy-benzamide]	100 to 500	> 500	> 500
COc1cc(-c2cnc3cc(C4(C#N)COC4)ccn23)cnc1C(=O)NCC(F)(F)F [Cpd 125, 5-[7-(3-cyanooxetan-3-yl)imidazo[1,2-a]pyridin-3-yl]-3-methoxy-N-(2,2,2-trifluoroethyl)pyridine-2-carboxamide]	> 500	> 500	> 500
CCC(CC)(OC)c1ccn2c(-c3cc(OC)c(C(=O)NC4CC4)c(OC(F)F)c3)cnc2c1 [Cpd 126, N-cyclopropyl-2-(difluoromethoxy)-4-[7-(1-ethyl-1-methoxy-propyl)imidazo[1,2-a]pyridin-3-yl]-6-methoxy-benzamide]	10 to 100	> 500	> 500
COc1cc(-c2cnc3cc(C(C)(C)C#N)ccn23)cnc1C(=O)NCC(F)(F)F [Cpd 127, 5-[7-(1-cyano-1-methyl-ethyl)imidazo[1,2-a]pyridin-3-yl]-3-methoxy-N-(2,2,2-trifluoroethyl)pyridine-2-carboxamide]	100 to 500	> 500	> 500
COc1cc(-c2cnc3cc(C(C)(O)C4CCOCC4)ccn23)cc(OC(F)F)c1C(=O)NC1CC1 (stereo not drawn) [Cpd 134, N-cyclopropyl-2-(difluoromethoxy)-4-[7-(1-hydroxy-1-tetrahydropyran-4-yl-ethyl)imidazo[1,2-a]pyridin-3-yl]-6-methoxy-benzamide]	10 to 100	> 500	> 500
COc1cc(-c2cnc3cc(C4(C(=O)N5CCOCC5)CC4)ccn23)cc(OC(F)F)c1C(=O)NC1CC1 [Cpd 141, N-cyclopropyl-2-(difluoromethoxy)-6-methoxy-4-[7-[1-(morpholine-4-carbonyl)cyclopropyl]imidazo[1,2-a]pyridin-3-yl]benzamide]	100 to 500	> 500	> 500

Further lines, results first:

IC50 (SIK3) [nM]	IC50 (SIK2) [nM]	IC50 (SIK1) [nM]	Structure (SMILES)
10 to 100	> 500	> 500	COc1cc(-c2cnc3cc(C(C)(C)C#N)ccn23)cc(OC(F)F)c1C(=O)NCC1COC1 [Cpd 102, 4-[7-(1-cyano-1-methyl-ethyl)imidazo[1,2-a]pyridin-3-yl]-2-(difluoromethoxy)-6-methoxy-N-(oxetan-3-ylmethyl)benzamide]
10 to 100	> 500	> 500	COc1cc(-c2cnc3cc(C(C)(C)C#N)ccn23)cc(OC(F)F)c1C(=O)N1CC(N)C1 [Cpd 103, 2-[3-[4-(3-aminoazetidine-1-carbonyl)-3-(difluoromethoxy)-5-methoxy-phenyl]imidazo[1,2-a]pyridin-7-yl]-2-methyl-propanenitrile]
0.01 to 10	10 to 100	100 to 500	COc1cc(-c2cnc3cc(C4CCOCC4)ccn23)cc(OC(F)F)c1C(=O)NC1CC1 [Cpd 108, N-cyclopropyl-2-(difluoromethoxy)-6-methoxy-4-(7-tetrahydropyran-4-ylimidazo[1,2-a]pyridin-3-yl)benzamide]
10 to 100	> 500	> 500	COc1cc(-c2cnc3cc(C4(C#N)CNC4)ccn23)cc(OC(F)F)c1C(=O)NC1CC1 [Cpd 110, 4-[7-(3-cyanoazetidin-3-yl)imidazo[1,2-a]pyridin-3-yl]-N-cyclopropyl-2-(difluoromethoxy)-6-methoxy-benzamide]
10 to 100	> 500	> 500	COc1cc(-c2cnc3cc(C(C)(C)C#N)ccn23)cc2c1C(=O)NC2 [Cpd 111, 2-[3-(7-methoxy-1-oxo-isoindolin-5-yl)imidazo[1,2-a]pyridin-7-yl]-2-methyl-propanenitrile]
0.01 to 10	10 to 100	> 500	COc1cc(-c2cnn3cc(C4CCOCC4)ccc23)cc(OC(F)F)c1C(=O)NC1CC1 [Cpd 112, N-cyclopropyl-2-(difluoromethoxy)-6-methoxy-4-(6-tetrahydropyran-4-ylpyrazolo[1,5-a]pyridin-3-yl)benzamide]
10 to 100	> 500	> 500	COc1cc(-c2cnc3cc(C4(C(=O)O)CC4)ccn23)cc(OC(F)F)c1C(=O)NC1CC1 [Cpd 114, 1-[3-[4-(cyclopropylcarbamoyl)-3-(difluoromethoxy)-5-methoxy-phenyl]imidazo[1,2-a]pyridin-7-yl]cyclopropanecarboxylic acid]
0.01 to 10	10 to 100	100 to 500	COc1cc(-c2cnc3cc(C4(CO)CC4)ccn23)cc(OC(F)F)c1C(=O)NC1CC1 [Cpd 115, N-cyclopropyl-2-(difluoromethoxy)-4-[7-[1-(hydroxymethyl)cyclopropyl]imidazo[1,2-a]pyridin-3-yl]-6-methoxy-benzamide]
0.01 to 10	> 500	> 500	COC(=O)C(F)(F)c1ccn2c(-c3cc(OC)c(C(=O)NC4CC4)c(OC(F)F)c3)cnc2c1 [Cpd 131, methyl 2-[3-[4-(cyclopropylcarbamoyl)-3-(difluoromethoxy)-5-methoxy-phenyl]imidazo[1,2-a]pyridin-7-yl]-2,2-difluoro-acetate]
0.01 to 10	100 to 500	100 to 500	COc1cc(-c2cnc3cc(C(F)(F)C(=O)O)ccn23)cc(OC(F)F)c1C(=O)NC1CC1 [Cpd 132, 2-[3-[4-(cyclopropylcarbamoyl)-3-(difluoromethoxy)-5-methoxy-phenyl]imidazo[1,2-a]pyridin-7-yl]-2,2-difluoro-acetic acid]
